Test results reported in US9067894B1, “Compound, composition, and method of activating GIRK potassium channel and use of same for treating conditions of interest” (Vanderbilt University, priority 2013, dated 2015).
“Also recorded” adds a separate entry of the source.

How the values were obtained:
GIRK2/3 = target: T1, GIRK2/3 (Homo sapiens, UniProt P48051+Q92806); test: Thallium flux assay, HEK-293 cells expressing GIRK2/3; format: cell-based; conditions: cell line GIRK2-3
T1 construct: expressed in transfected cells; host or cells: HEK-293
T1 sequence (P48051 1-423): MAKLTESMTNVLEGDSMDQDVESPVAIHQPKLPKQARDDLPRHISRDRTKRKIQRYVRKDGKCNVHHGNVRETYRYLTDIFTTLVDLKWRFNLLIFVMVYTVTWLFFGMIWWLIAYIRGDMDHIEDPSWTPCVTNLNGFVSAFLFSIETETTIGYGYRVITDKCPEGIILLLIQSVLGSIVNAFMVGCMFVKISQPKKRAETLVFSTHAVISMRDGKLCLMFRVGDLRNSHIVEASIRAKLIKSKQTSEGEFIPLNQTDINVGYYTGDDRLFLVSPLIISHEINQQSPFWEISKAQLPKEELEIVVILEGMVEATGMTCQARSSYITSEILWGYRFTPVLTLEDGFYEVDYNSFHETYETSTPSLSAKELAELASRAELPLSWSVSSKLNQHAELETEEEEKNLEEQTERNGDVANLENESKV
T1 sequence (Q92806 1-393): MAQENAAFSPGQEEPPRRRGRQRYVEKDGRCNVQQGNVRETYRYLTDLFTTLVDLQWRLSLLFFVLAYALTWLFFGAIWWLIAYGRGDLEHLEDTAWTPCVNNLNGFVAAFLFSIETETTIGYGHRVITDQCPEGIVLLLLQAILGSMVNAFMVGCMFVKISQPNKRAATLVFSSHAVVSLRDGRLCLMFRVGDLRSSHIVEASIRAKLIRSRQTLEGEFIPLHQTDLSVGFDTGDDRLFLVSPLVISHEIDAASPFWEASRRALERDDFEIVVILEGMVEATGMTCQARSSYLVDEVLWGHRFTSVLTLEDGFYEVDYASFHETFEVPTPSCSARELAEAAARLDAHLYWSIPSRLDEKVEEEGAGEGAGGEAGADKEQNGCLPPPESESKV
From the text: Cell Line Construction and Cell Culture. HEK-293 cells co-expressing human GIRK1/2 and rat mGlu8 were generated as previously described (Niswender et al., 2008). A HEK-293 cell line (ATCC, Manassas, Va.) expressing human GIRK1 and human GIRK2 was constructed by transfecting HEK-293 cells with GIRK1 and GIRK2 (Origene, Rockville, Md.) cloned into the pBudCE4.1 vector (Life Technologies, Carlsbad, Calif.) using FuGene 6 (Promega, Madison, Wis.) transfection reagent. Unless otherwise noted, other ion channel-expressing cells were prepared by transfecting HEK-293 cells with individual or combinations of subunits: GIRK1, pCMV6-A-BSD; GIRK2, pCMV6-A-puro; GIRK3, pCMV6-A-hygro; GIRK4, pCMV6-A-AC; Kv7.4, pIRESneo3. The Kir2.1 and hERG-expressing cell lines were made by transfecting T-REx-293 cells (Life Technologies, Carlsbad, Calif.) with Kir2.1 and Kv11.1, respectively, cloned into pcDNA5TO. Monoclonal cell lines were produced by limiting-dilution cloning of antibiotic-resistant cells and functional selection using the thallium flux assay described below. Unless otherwise noted, cells were maintained in Minimal Essential Medium, Alpha Medium (Mediatech, Manassas, Va.) supplemented with 10% fetal bovine serum (Sigma-Aldrich, Saint Louis, Mo.) and GlutaGro (Mediatech, Manassas, Va.), referred to henceforth as cell culture medium. […]

Adrenergic α1B = target: T2, Adrenergic α1B (Rattus norvegicus, UniProt P15823); test: Radioligand displacement (Ricerca); format: binding
T2 construct: Ricerca (contract assay)

GABAA (muscimol) = test: Radioligand displacement (Ricerca); format: binding, rat; conditions: 10 μM
Muscarinic M1 = target: T3, Muscarinic M1 (Homo sapiens, UniProt P11229); test: Radioligand displacement (Ricerca); format: binding
T3 construct: Ricerca (contract laboratory that ran the panel)

Neuropeptide Y (Y1 ) = target: T4, Neuropeptide Y (Y1 ) (Homo sapiens, UniProt P25929); test: Radioligand displacement (Ricerca); format: binding
T4 construct: Ricerca (contract laboratory that ran the panel)

Nicotinic acetylcholine = test: Radioligand displacement (Ricerca), second nicotinic entry; format: binding, human; conditions: 10 μM; second Nicotinic acetylcholine line
Opiate (KOP) = target: T5, Opiate (KOP) (Homo sapiens, UniProt P41145); test: Radioligand displacement (Ricerca); format: binding
T5 construct: Ricerca (contract laboratory that ran the panel)

Phorbol ester = test: Radioligand displacement (Ricerca); format: binding, mouse; conditions: 10 μM
hERG = target: T6, hERG (Homo sapiens, UniProt Q12809); test: Radioligand displacement (Ricerca); format: binding
T6 construct: Ricerca (contract laboratory that ran the panel)

Purinergic P2Y = test: Radioligand displacement (Ricerca); format: binding, rat; conditions: 10 μM

T4 sequence (P25929 whole entry): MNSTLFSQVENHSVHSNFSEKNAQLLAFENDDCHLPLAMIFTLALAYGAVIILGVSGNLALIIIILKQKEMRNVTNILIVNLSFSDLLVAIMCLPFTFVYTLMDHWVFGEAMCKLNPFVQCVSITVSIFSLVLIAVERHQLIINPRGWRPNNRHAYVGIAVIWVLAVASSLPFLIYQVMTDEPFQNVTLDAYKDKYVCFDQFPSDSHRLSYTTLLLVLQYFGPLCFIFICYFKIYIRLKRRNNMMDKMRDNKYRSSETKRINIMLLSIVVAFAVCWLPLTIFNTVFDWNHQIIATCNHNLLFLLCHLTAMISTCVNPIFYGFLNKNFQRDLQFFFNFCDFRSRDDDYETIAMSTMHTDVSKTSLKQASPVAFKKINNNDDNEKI
T2 sequence (P15823 whole entry): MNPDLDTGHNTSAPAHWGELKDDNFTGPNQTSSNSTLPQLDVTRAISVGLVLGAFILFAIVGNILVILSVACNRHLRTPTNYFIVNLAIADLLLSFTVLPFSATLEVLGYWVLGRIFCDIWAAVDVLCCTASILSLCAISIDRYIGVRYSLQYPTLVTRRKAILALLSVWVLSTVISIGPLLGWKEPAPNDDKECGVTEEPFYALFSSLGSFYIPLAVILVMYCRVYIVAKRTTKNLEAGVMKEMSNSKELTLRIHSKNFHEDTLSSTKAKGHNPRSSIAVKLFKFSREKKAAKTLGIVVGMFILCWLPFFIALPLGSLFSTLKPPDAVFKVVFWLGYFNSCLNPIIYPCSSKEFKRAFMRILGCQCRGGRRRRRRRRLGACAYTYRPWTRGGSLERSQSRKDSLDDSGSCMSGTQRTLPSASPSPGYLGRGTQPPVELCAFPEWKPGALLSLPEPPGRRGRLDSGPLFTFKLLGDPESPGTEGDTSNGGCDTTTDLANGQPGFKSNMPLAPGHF
T6 sequence (Q12809 whole entry): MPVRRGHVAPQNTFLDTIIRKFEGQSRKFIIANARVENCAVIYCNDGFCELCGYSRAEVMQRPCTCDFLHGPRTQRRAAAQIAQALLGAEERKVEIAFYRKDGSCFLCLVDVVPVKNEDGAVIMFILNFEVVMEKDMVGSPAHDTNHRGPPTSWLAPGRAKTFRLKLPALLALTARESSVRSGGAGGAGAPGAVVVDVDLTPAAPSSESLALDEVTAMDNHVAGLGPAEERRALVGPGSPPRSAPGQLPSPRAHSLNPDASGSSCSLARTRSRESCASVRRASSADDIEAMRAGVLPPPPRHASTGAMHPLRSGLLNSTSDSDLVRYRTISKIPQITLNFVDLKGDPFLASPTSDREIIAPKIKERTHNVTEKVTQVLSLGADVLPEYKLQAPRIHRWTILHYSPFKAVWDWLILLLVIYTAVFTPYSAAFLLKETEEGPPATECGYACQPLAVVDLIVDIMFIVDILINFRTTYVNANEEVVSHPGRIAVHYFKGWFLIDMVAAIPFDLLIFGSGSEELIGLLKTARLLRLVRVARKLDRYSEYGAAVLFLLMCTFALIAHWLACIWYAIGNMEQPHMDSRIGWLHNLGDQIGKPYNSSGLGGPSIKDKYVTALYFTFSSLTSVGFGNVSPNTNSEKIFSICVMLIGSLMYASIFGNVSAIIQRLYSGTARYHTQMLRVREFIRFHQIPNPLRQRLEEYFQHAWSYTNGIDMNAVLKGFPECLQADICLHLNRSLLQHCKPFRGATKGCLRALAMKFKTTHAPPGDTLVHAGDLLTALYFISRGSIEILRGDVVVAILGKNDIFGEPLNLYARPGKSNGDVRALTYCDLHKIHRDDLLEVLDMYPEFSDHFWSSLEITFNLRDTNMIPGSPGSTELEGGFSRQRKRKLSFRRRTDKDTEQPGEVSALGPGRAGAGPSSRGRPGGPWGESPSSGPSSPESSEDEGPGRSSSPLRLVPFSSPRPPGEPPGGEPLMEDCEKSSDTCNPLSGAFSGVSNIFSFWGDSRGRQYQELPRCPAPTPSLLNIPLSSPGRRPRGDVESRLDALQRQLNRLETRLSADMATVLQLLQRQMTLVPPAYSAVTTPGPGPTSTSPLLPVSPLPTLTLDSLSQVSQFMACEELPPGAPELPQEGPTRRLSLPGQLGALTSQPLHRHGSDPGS
T3 sequence (P11229 whole entry): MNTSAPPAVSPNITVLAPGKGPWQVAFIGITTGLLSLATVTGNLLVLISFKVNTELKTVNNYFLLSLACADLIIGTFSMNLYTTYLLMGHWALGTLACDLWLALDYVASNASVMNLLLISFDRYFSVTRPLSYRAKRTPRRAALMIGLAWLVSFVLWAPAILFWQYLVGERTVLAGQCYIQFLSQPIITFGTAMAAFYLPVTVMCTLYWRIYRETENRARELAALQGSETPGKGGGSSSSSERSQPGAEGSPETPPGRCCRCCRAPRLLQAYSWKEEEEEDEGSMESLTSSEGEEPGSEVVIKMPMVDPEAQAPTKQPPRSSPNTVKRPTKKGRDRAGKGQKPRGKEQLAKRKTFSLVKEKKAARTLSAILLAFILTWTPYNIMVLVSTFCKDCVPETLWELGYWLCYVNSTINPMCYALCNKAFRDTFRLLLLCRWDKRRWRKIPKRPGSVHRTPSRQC
T5 sequence (P41145 whole entry): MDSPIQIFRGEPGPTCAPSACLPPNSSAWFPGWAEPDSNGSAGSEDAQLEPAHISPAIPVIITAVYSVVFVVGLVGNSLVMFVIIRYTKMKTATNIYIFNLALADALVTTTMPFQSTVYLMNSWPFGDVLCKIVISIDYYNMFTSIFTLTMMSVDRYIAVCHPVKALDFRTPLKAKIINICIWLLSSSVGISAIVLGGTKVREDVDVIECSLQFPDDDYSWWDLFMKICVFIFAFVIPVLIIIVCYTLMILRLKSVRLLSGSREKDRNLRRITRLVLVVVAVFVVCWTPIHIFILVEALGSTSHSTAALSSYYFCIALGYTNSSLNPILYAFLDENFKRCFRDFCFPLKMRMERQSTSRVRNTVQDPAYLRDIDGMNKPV

Question: How did the “EC50 Thallium Flux” value (GIRK2/3) turn out when `Cc1cc(NC(=O)Nc2ccc(F)c(F)c2)n(-c2ccccc2)n1` [VU0456810, 1-(3,4-difluorophenyl)-3-(3-methyl-1-phenyl-1H-pyrazol-5-yl)urea] was run?
Answer: The value was “complete lack of efficacy; also recorded: Inactive”.

Question: And the “EC50 Thallium Flux” value (GIRK2/3; listed as 2)?
Answer: The value was “inactive”.

Question: What about the inhibition at 10 µM (Adrenergic α1B) of the same molecule?
Answer: Its inhibition at 10 µM is 1%.

Question: And the “% Inhibition” value (GABAA (muscimol))?
Answer: Its value is 49%.

Question: What about the inhibition at 10 µM (Muscarinic M1) of the same molecule?
Answer: The inhibition at 10 µM was 0%.

Question: And the inhibition at 10 µM (Neuropeptide Y (Y1 ))?
Answer: The inhibition at 10 µM was 24%.

Question: What about the “% Inhibition” value (Nicotinic acetylcholine) of the same molecule?
Answer: The value was 7%.

Question: And the inhibition at 10 µM (Opiate (KOP))?
Answer: The inhibition at 10 µM was 1%.

Question: And the “% Inhibition” value (Phorbol ester)?
Answer: The value was 1%.

Question: And the inhibition at 10 µM (hERG)?
Answer: Its inhibition at 10 µM is 10%.

Question: What about the “% Inhibition” value (Purinergic P2Y) of the same molecule?
Answer: Its value is 4%.
